Activity calls are given as the source filed them. No cut-off for these calls is given here.
Experiments:
[1] = target: Glycogen synthase kinase-3 beta (Homo sapiens) (UniProt P49841); test: Inhibition of GSK3-beta at 10 uM; design: scale not given: the % may be the effect or the level left
[2] = target: Epidermal growth factor receptor (Homo sapiens) (UniProt P00533); test: Inhibition of ErbB1 at 10 uM; design: scale not given: the % may be the effect or the level left
[3] = target: Cyclin-dependent kinase 2 (Homo sapiens) (UniProt P24941); test: Inhibition of Cdk2 at 10 uM; design: scale not given: the % may be the effect or the level left
Homo sapiens [4] = species on record: Homo sapiens; test: Inhibition of InR at 10 uM; design: scale not given: the % may be the effect or the level left
[5] = target: T1, Vascular endothelial growth factor receptor 2 (Homo sapiens, UniProt P35968); test: Inhibition of VEGFR2 assessed as inhibition of phosphorylation in human 293 cells by cell-based ELISA; format: functional, HEK293
[6] = target: Vascular endothelial growth factor receptor 3 (Homo sapiens) (UniProt P35916); test: Inhibition of Flt4 at 10 uM; design: scale not given: the % may be the effect or the level left
[7] = Passive diffusion assessed as intrinsic permeability across Caco-2 cell membrane; format: ADME, cell-based; settings: human, read-out: permeability (converted)
[8] = target: RAF proto-oncogene serine/threonine-protein kinase (Homo sapiens) (UniProt P04049); test: Inhibition of Raf1 at 10 uM; design: scale not given: the % may be the effect or the level left
RAF proto-oncogene serine/threonine-protein kinase (Homo sapiens), sequence (P04049 whole entry): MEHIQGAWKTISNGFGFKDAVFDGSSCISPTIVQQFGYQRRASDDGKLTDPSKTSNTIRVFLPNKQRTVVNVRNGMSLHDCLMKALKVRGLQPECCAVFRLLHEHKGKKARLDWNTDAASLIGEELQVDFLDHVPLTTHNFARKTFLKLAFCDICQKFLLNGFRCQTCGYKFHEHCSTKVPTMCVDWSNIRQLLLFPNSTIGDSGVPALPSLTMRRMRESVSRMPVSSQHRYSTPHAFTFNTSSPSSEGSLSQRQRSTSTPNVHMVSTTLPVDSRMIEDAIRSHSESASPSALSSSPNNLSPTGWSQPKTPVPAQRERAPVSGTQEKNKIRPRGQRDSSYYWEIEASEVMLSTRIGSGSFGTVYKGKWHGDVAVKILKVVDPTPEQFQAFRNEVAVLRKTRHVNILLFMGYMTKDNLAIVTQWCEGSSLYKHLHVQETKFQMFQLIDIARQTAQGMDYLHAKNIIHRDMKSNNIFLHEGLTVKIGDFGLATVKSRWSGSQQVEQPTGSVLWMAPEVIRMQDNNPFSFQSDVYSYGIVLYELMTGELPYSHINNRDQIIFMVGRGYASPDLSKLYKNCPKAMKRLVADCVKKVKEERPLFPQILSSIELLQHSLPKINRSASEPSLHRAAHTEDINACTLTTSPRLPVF

[9] = target: Receptor tyrosine-protein kinase erbB-2 (Homo sapiens) (UniProt P04626); test: Inhibition of ErbB2/Her2 at 10 uM; design: scale not given: the % may be the effect or the level left
[10] = target: Insulin-like growth factor 1 receptor (Homo sapiens) (UniProt P08069); test: Inhibition of IGF1R at 10 uM; design: scale not given: the % may be the effect or the level left
Caco-2 = test: Passive diffusion assessed as absorption potential across Caco-2 cell membrane; format: ADME, cell-based; settings: human
[11] = target: Vascular endothelial growth factor receptor 1 (Homo sapiens, UniProt P17948); test: Inhibition of VEGFR1 assessed as inhibition of phosphorylation in presence of 2 uM ATP by HTRF assay; format: functional
Vascular endothelial growth factor receptor 1, sequence (P17948 whole entry): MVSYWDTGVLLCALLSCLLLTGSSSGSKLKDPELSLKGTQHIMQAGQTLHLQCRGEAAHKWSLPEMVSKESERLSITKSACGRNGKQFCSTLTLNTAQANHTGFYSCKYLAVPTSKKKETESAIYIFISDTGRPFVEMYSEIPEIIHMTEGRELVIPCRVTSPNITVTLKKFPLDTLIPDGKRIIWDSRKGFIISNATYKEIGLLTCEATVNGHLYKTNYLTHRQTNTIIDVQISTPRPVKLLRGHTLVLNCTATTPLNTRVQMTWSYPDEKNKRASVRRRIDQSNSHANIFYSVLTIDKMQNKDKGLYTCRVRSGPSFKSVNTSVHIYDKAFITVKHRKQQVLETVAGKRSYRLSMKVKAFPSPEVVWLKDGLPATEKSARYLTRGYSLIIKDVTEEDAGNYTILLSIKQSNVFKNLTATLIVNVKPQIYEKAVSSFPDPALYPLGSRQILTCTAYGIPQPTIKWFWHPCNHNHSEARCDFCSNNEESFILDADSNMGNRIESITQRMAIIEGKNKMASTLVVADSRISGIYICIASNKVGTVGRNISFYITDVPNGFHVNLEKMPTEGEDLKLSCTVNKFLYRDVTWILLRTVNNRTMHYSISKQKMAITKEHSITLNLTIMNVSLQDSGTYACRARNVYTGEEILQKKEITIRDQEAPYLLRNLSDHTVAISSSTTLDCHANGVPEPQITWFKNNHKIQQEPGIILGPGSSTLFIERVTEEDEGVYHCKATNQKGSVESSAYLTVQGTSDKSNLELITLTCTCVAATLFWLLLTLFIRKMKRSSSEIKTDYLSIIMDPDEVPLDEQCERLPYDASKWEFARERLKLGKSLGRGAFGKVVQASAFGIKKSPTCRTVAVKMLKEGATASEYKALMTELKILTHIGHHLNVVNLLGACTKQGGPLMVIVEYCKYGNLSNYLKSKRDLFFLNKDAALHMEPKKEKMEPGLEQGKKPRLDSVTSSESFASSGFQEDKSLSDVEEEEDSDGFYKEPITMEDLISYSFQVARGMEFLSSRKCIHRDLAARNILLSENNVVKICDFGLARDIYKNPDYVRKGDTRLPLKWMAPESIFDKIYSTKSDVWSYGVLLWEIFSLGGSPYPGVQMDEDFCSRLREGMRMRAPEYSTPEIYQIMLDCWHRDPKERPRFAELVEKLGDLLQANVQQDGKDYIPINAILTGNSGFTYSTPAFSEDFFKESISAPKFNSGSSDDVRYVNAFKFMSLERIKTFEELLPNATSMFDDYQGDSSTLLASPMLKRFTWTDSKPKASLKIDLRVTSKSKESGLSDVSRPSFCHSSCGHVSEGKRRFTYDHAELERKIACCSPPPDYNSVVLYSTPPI

[12] = target: RAC-alpha serine/threonine-protein kinase (Homo sapiens) (UniProt P31749); test: Inhibition of PKB/Akt at 10 uM; design: scale not given: the % may be the effect or the level left
RAC-alpha serine/threonine-protein kinase (Homo sapiens), sequence (P31749 whole entry): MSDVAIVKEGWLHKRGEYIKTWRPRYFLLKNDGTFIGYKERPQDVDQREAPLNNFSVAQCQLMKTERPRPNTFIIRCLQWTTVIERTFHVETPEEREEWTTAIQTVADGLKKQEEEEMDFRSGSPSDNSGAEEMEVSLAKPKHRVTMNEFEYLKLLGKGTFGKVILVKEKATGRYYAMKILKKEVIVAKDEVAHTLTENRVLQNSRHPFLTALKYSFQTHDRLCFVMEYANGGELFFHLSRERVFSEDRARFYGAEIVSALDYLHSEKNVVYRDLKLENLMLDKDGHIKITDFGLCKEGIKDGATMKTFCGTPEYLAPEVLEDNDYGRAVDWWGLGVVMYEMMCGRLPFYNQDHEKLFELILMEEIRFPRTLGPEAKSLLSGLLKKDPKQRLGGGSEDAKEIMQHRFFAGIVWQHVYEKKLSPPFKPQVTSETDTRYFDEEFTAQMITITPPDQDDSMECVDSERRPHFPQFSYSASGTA

[13] = target: T1, Vascular endothelial growth factor receptor 2; test: Displacement of [32P]ATP from human VEGFR2 after 45 mins
Homo sapiens [14] = species on record: Homo sapiens; test: Inhibition of bcr-Abl at 10 uM; design: scale not given: the % may be the effect or the level left
Homo sapiens [15] = species on record: Homo sapiens; test: Inhibition of PKA at 10 uM; design: scale not given: the % may be the effect or the level left
[16] = target: T1, Vascular endothelial growth factor receptor 2; test: Inhibition of VEGFR2 assessed as inhibition of phosphorylation in presence of 2 uM ATP by HTRF assay; format: functional
Homo sapiens [17] = species on record: Homo sapiens; test: Inhibition of Cdk1 at 10 uM; design: scale not given: the % may be the effect or the level left
[18] = target: Receptor-type tyrosine-protein kinase FLT3 (Homo sapiens) (UniProt P36888); test: Inhibition of Flt3 at 10 uM; design: scale not given: the % may be the effect or the level left
[19] = target: Fibroblast growth factor receptor 1 (Homo sapiens) (UniProt P11362); test: Inhibition of FGFR1 at 10 uM; design: scale not given: the % may be the effect or the level left
[20] = target: Hepatocyte growth factor receptor (Homo sapiens) (UniProt P08581); test: Inhibition of cMet at 10 uM; design: scale not given: the % may be the effect or the level left
Hepatocyte growth factor receptor (Homo sapiens), sequence (P08581 whole entry): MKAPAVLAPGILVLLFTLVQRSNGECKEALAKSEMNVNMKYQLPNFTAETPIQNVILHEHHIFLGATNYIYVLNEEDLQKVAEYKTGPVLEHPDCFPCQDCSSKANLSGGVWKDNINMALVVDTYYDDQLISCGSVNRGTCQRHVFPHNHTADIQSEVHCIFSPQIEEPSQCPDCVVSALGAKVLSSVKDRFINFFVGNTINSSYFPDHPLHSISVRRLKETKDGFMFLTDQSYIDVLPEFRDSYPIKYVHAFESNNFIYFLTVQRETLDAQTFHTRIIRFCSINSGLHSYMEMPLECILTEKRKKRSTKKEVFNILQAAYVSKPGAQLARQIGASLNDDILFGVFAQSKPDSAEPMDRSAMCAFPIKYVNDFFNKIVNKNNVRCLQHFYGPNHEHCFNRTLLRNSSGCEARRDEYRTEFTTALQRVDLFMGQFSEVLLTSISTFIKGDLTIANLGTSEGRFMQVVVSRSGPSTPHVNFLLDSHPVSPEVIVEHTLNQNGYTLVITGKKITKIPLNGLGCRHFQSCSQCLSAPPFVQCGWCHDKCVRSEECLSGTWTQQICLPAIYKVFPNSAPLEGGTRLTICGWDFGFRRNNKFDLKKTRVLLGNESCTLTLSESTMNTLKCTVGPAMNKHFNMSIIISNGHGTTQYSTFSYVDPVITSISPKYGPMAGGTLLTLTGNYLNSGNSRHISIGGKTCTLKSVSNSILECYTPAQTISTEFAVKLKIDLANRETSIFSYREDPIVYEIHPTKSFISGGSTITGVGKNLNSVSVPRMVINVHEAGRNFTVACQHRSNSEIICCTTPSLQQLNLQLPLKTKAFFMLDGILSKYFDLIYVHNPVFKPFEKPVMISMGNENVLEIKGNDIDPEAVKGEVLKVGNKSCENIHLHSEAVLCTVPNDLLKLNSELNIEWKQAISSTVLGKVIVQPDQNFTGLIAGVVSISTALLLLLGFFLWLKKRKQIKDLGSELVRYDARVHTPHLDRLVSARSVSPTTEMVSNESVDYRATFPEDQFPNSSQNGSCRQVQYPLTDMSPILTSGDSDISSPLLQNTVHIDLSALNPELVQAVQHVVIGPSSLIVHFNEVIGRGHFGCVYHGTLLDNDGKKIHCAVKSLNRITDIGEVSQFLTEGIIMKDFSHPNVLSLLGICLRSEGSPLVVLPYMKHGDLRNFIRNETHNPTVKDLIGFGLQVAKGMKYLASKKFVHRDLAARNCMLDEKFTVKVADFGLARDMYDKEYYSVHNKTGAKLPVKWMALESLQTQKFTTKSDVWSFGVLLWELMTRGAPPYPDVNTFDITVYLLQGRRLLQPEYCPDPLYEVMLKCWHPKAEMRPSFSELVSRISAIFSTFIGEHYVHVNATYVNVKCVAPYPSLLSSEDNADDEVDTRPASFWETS

HEK293 = test: Cytotoxicity against HEK293 cells after 24 hrs; format: functional, cell-based; settings: Homo sapiens
DLD-1 = test: Cytotoxicity against human DLD1 cells after 24 hrs; format: functional; settings: DLD-1, 24 h
A-431 = test: Cytotoxicity against human A431 cells after 24 hrs; format: functional; settings: A-431, 24 h
DU-145 = test: Cytotoxicity against human DU145 cells after 24 hrs; format: functional; settings: DU-145, 24 h

Epidermal growth factor receptor (Homo sapiens), sequence (P00533 whole entry): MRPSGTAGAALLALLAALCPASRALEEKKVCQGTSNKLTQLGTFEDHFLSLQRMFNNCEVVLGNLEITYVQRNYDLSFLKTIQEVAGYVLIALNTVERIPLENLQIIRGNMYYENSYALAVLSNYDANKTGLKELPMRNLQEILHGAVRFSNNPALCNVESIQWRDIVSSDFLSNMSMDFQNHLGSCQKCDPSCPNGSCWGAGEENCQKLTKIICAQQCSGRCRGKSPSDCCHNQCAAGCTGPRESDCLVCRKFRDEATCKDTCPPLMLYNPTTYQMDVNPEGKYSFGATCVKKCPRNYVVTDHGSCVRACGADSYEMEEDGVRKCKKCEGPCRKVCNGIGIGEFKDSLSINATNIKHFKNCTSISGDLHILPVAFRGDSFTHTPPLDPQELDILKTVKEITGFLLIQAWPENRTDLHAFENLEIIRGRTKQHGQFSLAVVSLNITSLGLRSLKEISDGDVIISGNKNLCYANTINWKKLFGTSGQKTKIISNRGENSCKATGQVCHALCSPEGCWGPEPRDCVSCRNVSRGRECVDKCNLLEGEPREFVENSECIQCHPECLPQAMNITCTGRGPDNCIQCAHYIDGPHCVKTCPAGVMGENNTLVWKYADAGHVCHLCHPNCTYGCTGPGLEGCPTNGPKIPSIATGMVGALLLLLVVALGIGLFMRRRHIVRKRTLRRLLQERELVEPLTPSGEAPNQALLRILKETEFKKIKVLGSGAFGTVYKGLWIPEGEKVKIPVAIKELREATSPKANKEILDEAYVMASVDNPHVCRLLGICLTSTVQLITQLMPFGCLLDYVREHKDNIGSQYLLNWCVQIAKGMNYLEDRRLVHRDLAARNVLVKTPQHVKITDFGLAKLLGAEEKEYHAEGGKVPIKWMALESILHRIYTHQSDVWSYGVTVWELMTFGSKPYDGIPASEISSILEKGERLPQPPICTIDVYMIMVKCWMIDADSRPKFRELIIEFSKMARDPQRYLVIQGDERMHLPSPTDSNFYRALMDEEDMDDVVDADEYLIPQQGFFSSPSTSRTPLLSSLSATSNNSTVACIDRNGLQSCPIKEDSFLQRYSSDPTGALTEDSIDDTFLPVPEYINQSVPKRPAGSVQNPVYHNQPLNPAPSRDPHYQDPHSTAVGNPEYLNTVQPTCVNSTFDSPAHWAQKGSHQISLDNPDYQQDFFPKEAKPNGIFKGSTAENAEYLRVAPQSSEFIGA

Activity [1] [%]	Activity [2] [%]	Activity [3] [%]	Activity (Homo sapiens [4]) [%]	IC50 [5] [nM]	Activity [6] [%]	Papp [7] [×10⁻⁶ cm/s]	Activity [8] [%]	Activity [9] [%]	Activity [10] [%]	Activity (Caco-2)	IC50 [11] [nM]	Activity [12] [%]	Ki [13] [nM]	Activity (Homo sapiens [14]) [%]	Activity (Homo sapiens [15]) [%]	Activity (Homo sapiens [17]) [%]	Activity [18] [%]	Activity [19] [%]	Activity [20] [%]	SMILES	also measured
> 30	< 30	> 30	> 30	90	> 30	6.95	> 30	> 30	> 30	Active	97	> 30	90	> 30	> 30	> 30	> 30	> 30	> 30	O=C(Nc1ccc(Cl)cc1)c1ccnn1CCc1ccncc1	IC50 [16]: 77 nM; Ki [16]: 110 nM
> 30	< 30	> 30	> 30	18	> 30	7.03	> 30	> 30	> 30	Active	190	> 30	80	> 30	> 30	> 30	> 30	> 30	> 30	O=C(Nc1ccc(OC(F)(F)F)cc1)c1ccnn1CCc1ccncc1	IC50 [16]: 28 nM; Ki [16]: 90 nM
> 30	< 30	> 30	> 30	21	> 30	4.73	> 30	> 30	> 30	Active	320	> 30	90	> 30	> 30	> 30	> 30	> 30	> 30	O=C(Nc1cccc(OC(F)(F)Cl)c1)c1ccnn1CCc1ccncc1	Ki [16]: 70 nM
> 30	< 30	> 30	> 30	90	> 30		> 30	> 30	> 30		1230	> 30		> 30	> 30	> 30	> 30	> 30	> 30	COc1ccc(NC(=O)c2ccnn2CCc2ccncc2)cc1OC	Activity (HEK293): Active; GI50 (DLD-1): 125 nM; GI50 (A-431): 50 nM; GI50 (DU-145): 220 nM; IC50 [16]: 440 nM
